The results in this text go back to ChEMBL document CHEMBL1139800, “Design, synthesis and antitubercular activity of diarylmethylnaphthol derivatives” (Bioorg Med Chem Lett, 2007).

Data set [1] relates to Mycobacterium tuberculosis. In words: Antitubercular activity against Mycobacterium tuberculosis H37Rv by MABA assay. The data set is classed as functional.
In data set [2] the test system is Mycobacterium tuberculosis. Put plainly: Antitubercular activity against Mycobacterium tuberculosis H37Rv by Agar dilution method. The data set is classed as functional.
A further data set deals with Vero. In words: Cytotoxicity against Vero cells after 3 days. The data set is classed as cell-based. The note with it: chlorocebus sabaeus, 72 h.
In data set [3] the test system is Mycobacterium tuberculosis. Put plainly: Antitubercular activity against Mycobacterium tuberculosis H37Rv at 12.5 ug/mL by MABA assay. Format: functional, organism-based.

Converted amounts (≈) assume the structure as drawn. The source made the active and inactive calls. No cut-off for these calls is given here.

With `c1ccc(C(c2ccccc2)c2ccc(OCCN3CCCCCC3)c3ccccc23)cc1`, the MIC in data set [1] and in data set [2] was 12.5 µg/mL (≈ 28.7 µM) in each case.

Consider `CN(C)CCOc1ccc2ccccc2c1C(c1ccccc1)c1ccc(Cl)cc1` (stereo unspecified), for which the minimal inhibitory concentration (MIC) in data set [1] stood at 3.12 µg/mL (≈ 7.5 µM); in data set [2] it was 6.25 µg/mL (≈ 15 µM).

As for `CN(C)CCOc1ccc2ccccc2c1C(c1ccccc1)c1ccccc1`, the figures for the MIC in data set [1] and in data set [2] were 6.25 µg/mL (≈ 16.4 µM) and 3.12 µg/mL (≈ 8.18 µM), respectively. In the data set on Vero, the Activity result is recorded as “Toxic”.

`Fc1ccc(C(c2ccccc2)c2ccc(OCCN3CCCCC3)c3ccccc23)cc1` (stereo unspecified): the MIC in data set [1] and in data set [2] was 12.5 µg/mL (≈ 28.4 µM) each time.

Turning to `NNC(=O)c1ccncc1` [ISONIAZID], the MIC in data set [1] and in data set [2] was 0.025 µg/mL (≈ 0.182 µM) in each case.

Regarding `Clc1ccc(C(c2ccccc2)c2ccc(OCCN3CCCC3)c3ccccc23)cc1` (stereo unspecified), the result in data set [3] was inactive. Further, the minimum inhibitory concentration (MIC) in data set [2] was found to be 12.5 µg/mL (≈ 28.3 µM).

As to `CCN(CC)CCOc1ccc2ccccc2c1C(c1ccccc1)c1ccccc1`, the MIC in data set [1] came to 6.25 µg/mL (≈ 15.3 µM); in data set [2] it was 3.12 µg/mL (≈ 7.62 µM). Further, the Activity entry with Vero was “Toxic”.

Regarding `CN(C)CCOc1ccc2ccccc2c1C(c1ccccc1)c1ccc(F)cc1` (stereo unspecified), the values for the MIC in data set [1] and in data set [2] were 3.12 µg/mL (≈ 7.81 µM) and 6.25 µg/mL (≈ 15.6 µM), respectively.

With `CCN(CC)CCOc1ccc2ccccc2c1C(c1ccccc1)c1ccc(Cl)cc1` (stereo unspecified), the MIC was determined as 3.12 µg/mL (≈ 7.03 µM) in data set [1] and 6.25 µg/mL (≈ 14.1 µM) in data set [2].

Take `CN(C)CCOc1ccc(C(c2ccccc2)c2ccccc2)c2ccccc12`: the figures for the minimal inhibitory concentration (MIC) in data set [1] and in data set [2] were 12.5 µg/mL (≈ 32.8 µM) and 6.25 µg/mL (≈ 16.4 µM), respectively.

As to `Fc1ccc(C(c2ccccc2)c2ccc(OCCN3CCCCCC3)c3ccccc23)cc1` (stereo unspecified), the MIC is 12.5 µg/mL (≈ 27.6 µM) in data set [1] and above 12.5 µg/mL in data set [2].

As for `Clc1ccc(C(c2ccccc2)c2ccc(OCCN3CCCCC3)c3ccccc23)cc1` (stereo unspecified), in data set [3], the result was inactive. Further, the lowest concentration to inhibit growth in data set [2] (MIC) was 12.5 µg/mL (≈ 27.4 µM).

Regarding `Fc1ccc(C(c2ccccc2)c2c(OCCN3CCCC3)ccc3ccccc23)cc1` (stereo unspecified), the MIC in data set [1] amounted to 3.12 µg/mL (≈ 7.33 µM); in data set [2], 6.25 µg/mL (≈ 14.7 µM).

Regarding `c1ccc(C(c2ccccc2)c2c(OCCN3CCCCC3)ccc3ccccc23)cc1`, the figures for the minimal inhibitory concentration (MIC) in data set [1] and in data set [2] were 6.25 µg/mL (≈ 14.8 µM) and 3.12 µg/mL (≈ 7.4 µM), respectively. Further, the Activity entry with Vero was “Toxic”.

For `c1ccc(C(c2ccccc2)c2c(OCCN3CCCC3)ccc3ccccc23)cc1`, the MIC in data set [1] worked out at 6.25 µg/mL (≈ 15.3 µM); in data set [2], 3.12 µg/mL (≈ 7.66 µM). Moreover, the Activity result in the data set on Vero is “Toxic”.

As to `CCN(CC)CCOc1ccc(C(c2ccccc2)c2ccc(Cl)cc2)c2ccccc12` (stereo unspecified), the MIC in data set [1] and in data set [2] was 12.5 µg/mL (≈ 28.2 µM) in each case.

In the case of `CN(C)CCOc1ccc(C(c2ccccc2)c2ccc(F)cc2)c2ccccc12` (stereo unspecified), in data set [3], the outcome was inactive. Besides, the MIC in data set [2] was above 12.5 µg/mL.

On to `Fc1ccc(C(c2ccccc2)c2c(OCCN3CCCCC3)ccc3ccccc23)cc1` (stereo unspecified), for which the results for the MIC in data set [1] and in data set [2] were 6.25 µg/mL (≈ 14.2 µM) and 3.12 µg/mL (≈ 7.1 µM), respectively. Besides, the Activity entry in the data set with Vero was “Toxic”.

As for `CO[C@H]1/C=C/O[C@@]2(C)Oc3c(C)c(O)c4c(O)c(c(/C=N/N5CCN(C)CC5)c(O)c4c3C2=O)NC(=O)/C(C)=C\C=C\[C@H](C)[C@H](O)[C@@H](C)[C@@H](O)[C@@H](C)[C@H](OC(C)=O)[C@@H]1C` [RIFAMPIN], the MIC in data set [1] and in data set [2] was 0.2 µg/mL (≈ 0.243 µM) each time.

Take `Fc1ccc(C(c2ccccc2)c2ccc(OCCN3CCCC3)c3ccccc23)cc1` (stereo unspecified): the MIC is 6.25 µg/mL (≈ 14.7 µM) in data set [1] and 12.5 µg/mL (≈ 29.4 µM) in data set [2].

Take `Clc1ccc(C(c2ccccc2)c2c(OCCN3CCCC3)ccc3ccccc23)cc1` (stereo unspecified): the minimum inhibitory concentration (MIC) came out at 3.12 µg/mL (≈ 7.06 µM) in data set [1] and 6.25 µg/mL (≈ 14.1 µM) in data set [2].

For `Fc1ccc(C(c2ccccc2)c2c(OCCN3CCCCCC3)ccc3ccccc23)cc1` (stereo unspecified), the minimum inhibitory concentration (MIC) came to 6.25 µg/mL (≈ 13.8 µM) in data set [1] and 12.5 µg/mL (≈ 27.6 µM) in data set [2].

For the molecule `c1ccc(C(c2ccccc2)c2ccc(OCCN3CCCC3)c3ccccc23)cc1`, the MIC in data set [1] amounted to 6.25 µg/mL (≈ 15.3 µM); in data set [2], 12.5 µg/mL (≈ 30.7 µM).

As to `Clc1ccc(C(c2ccccc2)c2c(OCCN3CCCCC3)ccc3ccccc23)cc1` (stereo unspecified), the MIC in data set [1] came to 3.12 µg/mL (≈ 6.84 µM); in data set [2] it was 6.25 µg/mL (≈ 13.7 µM).

Consider `Clc1ccc(C(c2ccccc2)c2c(OCCN3CCCCCC3)ccc3ccccc23)cc1` (stereo unspecified), for which the MIC in data set [1] turned out to be 3.12 µg/mL (≈ 6.64 µM); in data set [2], 6.25 µg/mL (≈ 13.3 µM).

As for `CCN(CC)CCOc1ccc2ccccc2c1C(c1ccccc1)c1ccc(F)cc1` (stereo unspecified), the MIC worked out at 6.25 µg/mL (≈ 14.6 µM) in data set [1] and 3.12 µg/mL (≈ 7.3 µM) in data set [2]. The Activity result in the data set with Vero is listed as “Toxic”.

Take `CCN(CC)CCOc1ccc(C(c2ccccc2)c2ccc(F)cc2)c2ccccc12` (stereo unspecified): in data set [3], the result was inactive. The same molecule yielded an MIC in data set [2] above 12.5 µg/mL.

With `Clc1ccc(C(c2ccccc2)c2ccc(OCCN3CCCCCC3)c3ccccc23)cc1` (stereo unspecified), the outcome in data set [3] was inactive. The molecule also had an MIC in data set [2] above 12.5 µg/mL.

For the molecule `c1ccc(C(c2ccccc2)c2ccc(OCCN3CCCCC3)c3ccccc23)cc1`, the results for the minimal inhibitory concentration (MIC) in data set [1] and in data set [2] were 12.5 µg/mL (≈ 29.7 µM) and above 12.5 µg/mL, respectively.

Consider `c1ccc(C(c2ccccc2)c2c(OCCN3CCCCCC3)ccc3ccccc23)cc1`, for which the MIC in data set [1] was found to be 6.25 µg/mL (≈ 14.3 µM); in data set [2], 3.12 µg/mL (≈ 7.16 µM). The Activity result with Vero is “Toxic”.

With `CCN(CC)CCOc1ccc(C(c2ccccc2)c2ccccc2)c2ccccc12`, the MIC in data set [1] was found to be 6.25 µg/mL (≈ 15.3 µM); in data set [2] it was 12.5 µg/mL (≈ 30.5 µM).

`CN(C)CCOc1ccc(C(c2ccccc2)c2ccc(Cl)cc2)c2ccccc12` (stereo unspecified): in data set [3], the outcome was inactive. The molecule further gave a minimum inhibitory concentration (MIC) in data set [2] above 12.5 µg/mL.
